The values below come from patent US12053476B2, “Compounds, compositions and methods for cancer patient stratification and cancer treatment” (BAYER PHARMA AKTIENGESELLSCHAFT, priority 2016, dated 2024).

One series has as its target T1, PDE3A(677-1141) (Homo sapiens, UniProt Q14432).
T1 construct: purified PDE3A catalytic domain, PDE3A(677-1141)
The series is described as follows: Differential scanning fluorimetry (DSF) binding to purified PDE3A catalytic domain. The settings on record: 5 μM PDE3A, 100 μM compound. The procedure: Binding buffer: 20 mM Hepes pH 7.4, 100 μM TCEP, 1 mM MgCl2, 150 mM NaCl.

Series [1] is described as follows: In vitro metabolic stability in cryopreserved human hepatocytes. It counts as in vitro ADME. The note with it: 1 μM test compound. The procedure:
Investigation of In Vitro Metabolic Stability in Cryopreserved Human Hepatocytes (Including Calculation of Hepatic In Vivo Blood Clearance (CL) and Maximal Oral Bioavailability (Fmax))
Cryopreserved Hepatocytes (e.g. purchased from Celsis InVitroTechnologies) were briefly thawed, washed with 45 mL pre-warmed in in vitro GRO HT medium and centrifuged for 5 min at 50×g. The cell pellet was resuspended in 5 ml of Krebs-Henseleit […] (KHB). Cell viability was determined by trypan blue exclusion.
For the metabolic stability assay liver cells were distributed in WME containing 5% FCS to glass vials at a density of 1.0×10^6 vital cells/ml. The test compound was added to a final concentration of 1 μM. During incubation, the hepatocyte suspensions were continuously shaken at 580 rpm and aliquots were taken at 2, 8, 16, 30, 45 and 90 min, to which equal volumes of cold methanol were immediately added. Samples were frozen at −20° C. over night, after subsequently centrifuged for 15 minutes at 3000 rpm and the supernatant was analyzed with an Agilent 1290 HPLC-system with LCMS/MS detection.
The half-life of a test compound was determined from the concentration-time plot. From the half-life the intrinsic clearances were calculated. […] The hepatic in vivo blood clearance (CL) and the maximal oral bioavailability (Fmax) was calculated.

The next series concerns the target T2, PDE3A (Homo sapiens, UniProt Q14432).
T2 construct: endogenous in cells; host or cells: HeLa
As to the kind of experiment: Linker-affinity purification of molecular target of DNMDP and immunoblotting (competition). It counts as binding. The settings on record: HeLa cell lysate, 10 μM compound. The procedure:
To identify the molecular target of DNMDP, an affinity purification was performed using an (R)-des-nitro-DNMDP solid-phase tethered linker analogue (FIG. 10A) incubated with HeLa cell lysate. […] It was competed for the molecular target by adding either an excess of trequinsin or separate enantiomers of DNMDP, where only the (R)-enantiomer was cytotoxic. […] Binding of PDE3A to the linker analogue was blocked by both trequinsin and (R)-DNMDP, but not by the non-cytotoxic enantiomer (S)-DNMDP (FIG. 9C). Thus both trequinsin and (R)-DNMDP prevented the binding of PDE3A to the tethered DNMDP analogue, and it was concluded that both molecules bind PDE3A directly.
HeLa cells were washed with ice-cold PBS before lysed with NP-40 lysis buffer (150 mM NaCl, 10% glycerol, 50 mM Tris-Cl pH 8.0, 50 mM MgCl2, 1% NP-40) supplemented with EDTA-free protease inhibitors (Roche) and phosphatase inhibitor mixtures I and II (Calbiochem). Cell lysates were incubated on ice for at least 2 minutes and subsequently centrifuged for 10 minutes at 4° C. at 15,700×g after which the supernatant was quantified using BCA protein assay kit (Pierce). […] total HeLa cell lysate was incubated with 3 μl Affi-Gel 102 resin (BioRad) coupled to affinity linker DNMDP-2L in a total volume of 400 μl for four hours. Prior to incubation, indicated compounds were added to affinity purifications at a final concentration of 10 μM. Samples were washed three times with lysis buffer containing corresponding compound concentrations of 10 μM. Proteins bound to Affi-Gel 102 resin were reduced, denatured, and separated using Tris-Glycine gels (Novex) and transferred to nitrocellulose membranes using the iBlot transfer system (Novex). Membranes were incubated overnight at 4° C. with primary antibodies against PDE3A (1:1000, Bethyl). Incubation with secondary antibodies (1:20,000, LI-COR Biosciences) for two hours at room temperature and subsequent detection (Odyssey Imaging System, LI-COR Biosciences) were performed according to manufacturer's recommendations.

Series [2] relates to HeLa cells. The series is described as follows: Follow-up dose-dependent rescue of DNMDP cytotoxicity (competition with DNMDP). It counts as cell-based, human. The note with it: co-treatment with DNMDP, 48 h; for rescue of DNMDP cytotoxicity / competition (in words): up to 10 μM.
The test system of series [3] is HeLa cells. As to the kind of experiment: Compound sensitivity testing in cell lines (cell viability, 48 h). It counts as cell-based, human. How it is done:
1500 NCI-H1734 or 1000 A549 cells were plated in a 384-well plate in 40 μl of RPMI supplemented with 10% Fetal Bovine Serum and 1% Pen/Strep. 24 hours after plating, a compound-library of 1924 small molecules was added at a concentration of 10 μM. Staurosporine was used a positive control for cytotoxicity at a concentration of 10 μM, and DMSO was used a negative control at a concentration of 1%. All compounds were incubated for 48 hours with indicated small molecules. After 48 hours, 384-well plates were removed from the incubator and allowed to cool to room temperature for 20 minutes. Cell viability was assessed by adding 40 μl of a 25% CELLTITERGLO® (Promega) in PBS with a THERMO COMBI™ or multichannel-pipette and incubated for 10 minutes. The luminescence signal was read using a Perkin-Elmer EnVision. Viability percentage was calculated by normalizing to DMSO controls.
1000 HeLa (DMEM), 1000 A549 (RPMI), 500 MCF-7 (DMEM), 4000 PC3 (F12-K), 1000 NCI-H2122 (RPMI) or 1500 NCI-H1563 (RPMI) cells were plated in a 384-well plate in 40 μl of corresponding growth media supplemented with 10% Fetal Bovine Serum. 24 hours after plating, indicated compounds were added at indicated concentrations and incubated for 48 hours. Cell viability was assessed as described in Compound library screening in NCI-H1734 and A549 cell lines.

The test system of series [4] is HeLa cells. As to the kind of experiment: Bioactives screen to rescue DNMDP induced cytotoxicity. The note with it: 20 μM bioactive + 30 nM DNMDP, 48 h. It counts as cell-based, human. From the text:
Most importantly, PDE4 competitive inhibitors and PDE4 allosteric modulators with similar IC50s for cAMP hydrolysis in vitro had different cellular activities and safety profiles in animal studies (Burgin et al., Nat Biotechnol 28, 63-70, 2010). To evaluate whether PDE inhibitors or other small molecules compete with DNMDP, the PHARMAKON 1600 collection of 1600 bioactive compounds (PHARMAKON 1600 is a unique collection of 1600 known drugs from US and International Pharmacopeia) was screened to identify compounds that were able to rescue cell death induced by DNMDP. HeLa cells were co-treated with 30 nM DNMDP (the EC70 concentration) and 20 μM of each bioactive compound. Cell viability after 48-hour treatment was assessed by ATP […] as described earlier.
Bioactives Screen to Rescue DNMDP Induced Cytotoxicity 1000 HeLa cells were plated in a 384-well plate in 40 μl of DMEM supplemented with 10% Fetal Bovine Serum and 1% Pen/Strep. 24 hours after plating, a compound-library of 1600 bioactive molecules (Pharmacon) was added at a concentration of 20 μM. In parallel to bioactive compound incubation, DNMDP was added to a final concentration of 30 nM and incubated for 48 hours. Cell viability was assessed as described in Compound library screening in NCI-H1734 and A549 cell lines. Linker-Affinity Purification of Molecular Target of DNMDP and Immunoblotting

SMILES strings stand for the structures.

T2 sequence (Q14432 whole entry): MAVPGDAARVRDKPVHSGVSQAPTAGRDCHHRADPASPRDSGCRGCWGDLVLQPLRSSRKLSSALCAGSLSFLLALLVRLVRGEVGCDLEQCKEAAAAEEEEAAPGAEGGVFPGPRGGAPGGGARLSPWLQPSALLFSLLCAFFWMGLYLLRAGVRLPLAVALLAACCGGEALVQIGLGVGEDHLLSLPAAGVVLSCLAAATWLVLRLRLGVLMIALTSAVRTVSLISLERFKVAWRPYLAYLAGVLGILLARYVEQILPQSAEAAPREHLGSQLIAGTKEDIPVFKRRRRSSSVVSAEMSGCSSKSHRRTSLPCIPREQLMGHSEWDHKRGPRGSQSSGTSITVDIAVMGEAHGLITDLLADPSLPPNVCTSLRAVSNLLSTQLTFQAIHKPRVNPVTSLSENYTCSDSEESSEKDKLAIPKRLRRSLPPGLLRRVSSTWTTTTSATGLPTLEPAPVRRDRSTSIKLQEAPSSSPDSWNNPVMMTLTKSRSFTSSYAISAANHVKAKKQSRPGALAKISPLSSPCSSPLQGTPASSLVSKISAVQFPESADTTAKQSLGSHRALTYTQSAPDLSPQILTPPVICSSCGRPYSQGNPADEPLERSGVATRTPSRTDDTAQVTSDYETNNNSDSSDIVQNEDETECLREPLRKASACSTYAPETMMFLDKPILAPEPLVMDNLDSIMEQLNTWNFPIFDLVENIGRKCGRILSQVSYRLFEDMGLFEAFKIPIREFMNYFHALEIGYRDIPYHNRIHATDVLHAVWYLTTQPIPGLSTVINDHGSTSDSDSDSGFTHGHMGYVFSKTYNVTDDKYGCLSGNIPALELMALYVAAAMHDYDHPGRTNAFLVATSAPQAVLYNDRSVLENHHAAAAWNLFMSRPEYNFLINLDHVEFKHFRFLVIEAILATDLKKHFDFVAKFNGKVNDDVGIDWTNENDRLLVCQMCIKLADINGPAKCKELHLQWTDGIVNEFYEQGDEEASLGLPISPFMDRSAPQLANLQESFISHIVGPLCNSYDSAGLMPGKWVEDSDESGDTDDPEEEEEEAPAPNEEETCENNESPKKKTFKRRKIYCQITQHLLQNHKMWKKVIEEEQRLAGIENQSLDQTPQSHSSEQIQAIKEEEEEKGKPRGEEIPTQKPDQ
T1 sequence (Q14432 677-1141): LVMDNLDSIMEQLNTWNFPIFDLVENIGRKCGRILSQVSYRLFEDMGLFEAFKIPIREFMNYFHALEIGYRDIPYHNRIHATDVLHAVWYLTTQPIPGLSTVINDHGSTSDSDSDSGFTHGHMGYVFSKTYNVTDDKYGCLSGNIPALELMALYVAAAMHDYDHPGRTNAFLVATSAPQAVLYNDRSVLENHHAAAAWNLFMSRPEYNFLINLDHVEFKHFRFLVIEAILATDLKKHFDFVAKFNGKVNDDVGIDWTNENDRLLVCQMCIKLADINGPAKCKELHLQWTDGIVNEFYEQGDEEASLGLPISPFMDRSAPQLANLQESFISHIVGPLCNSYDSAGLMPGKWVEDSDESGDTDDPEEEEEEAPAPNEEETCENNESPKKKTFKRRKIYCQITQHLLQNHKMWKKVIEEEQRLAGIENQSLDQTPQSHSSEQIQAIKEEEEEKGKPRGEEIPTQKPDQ

In general, Tm refers to the temperature at which the thermal transition is half complete. Broadly, the ΔTm is the shift of the melting midpoint relative to a reference. On to `C[C@@H]1CC(=O)NN=C1c1ccc(N2CCOCC2)c(F)c1` (single isomer, unassigned) [Compound 3], for which, on PDE3A(677-1141), the Tm worked out at 59.0 ± 0.0 °C and the thermal shift (ΔTm) at 100 µM is 6.6 °C. Besides, in series [1], the “mean metabolic stability (Fmax)” value was 49%.
With `CCN(CC)c1ccc(C2=NNC(=O)C[C@H]2C)cc1[N+](=O)[O-]` [(R)-DNMDP, (R)-6-(4-(diethylamino)-3-nitrophenyl)-5-methyl-4,5-dihydropyridazin-3(2H)-one], the “blocking of PDE3A binding to the tethered linker analogue” value at PDE3A is “blocked”.
`CCN(CC)c1ccc(C2=NNC(=O)C[C@@H]2C)cc1[N+](=O)[O-]` [(S)-DNMDP]: on PDE3A, the “blocking of PDE3A binding to the tethered linker analogue” value is given as “not”.
Take `O=C1CN2Cc3c(ccc(Cl)c3Cl)N=C2N1` [Anagrelide, 6,7-dichloro-1,5-dihydroimidazo (2,1-b)quinazolin-2(3H)-one, reference compound]: the Tm on PDE3A(677-1141) turned out to be 56.6 ± 0.0 °C.
With `COc1cc2c(cc1OC)-c1c/c(=N\c3c(C)cc(C)cc3C)n(C)c(=O)n1CC2` [Trequinsin, 9,10-dimethoxy-3-methyl-2-(2,4,6-trimethylphenyl)imino-6,7-dihydropyrimido[6,1-a]isoquinolin-4-one, reference compound], the Tm at PDE3A(677-1141) was determined as 66.2 ± 0.0 °C. For the same molecule, the “blocking of PDE3A binding to the tethered linker analogue” value at PDE3A was “blocked”. In addition, the EC50 in the series on HeLa cells [2] (Homo sapiens, read-out: RC50 (the concentration at which it achieved 50% rescue)) is below 1 nM. Further, in the series with HeLa cells [3], the “effect on HeLa cell viability (in words)” value is given as “did not affect HeLa cell viability in any detectable way”.
Take `CN(C(=O)CCCOc1ccc2[nH]c(=O)ccc2c1)C1CCCCC1` [cilostamide, N-cyclohexyl-N-methyl-4-[(2-oxo-1H-quinolin-6-yl)oxy]butanamide]: in the series with HeLa cells [2], the “rescue of DNMDP cytotoxicity / competition (in words)” value is “able to rescue DNMDP cytotoxicity in a dose-dependent manner”.
For `O=C1CCc2cc(OCCCCc3nnnn3C3CCCCC3)ccc2N1` [cilostazol, 6-[4-(1-cyclohexyl-1H-tetrazol-5-yl)butoxy]-3,4-dihydro-2(1H)-quinolinone], the “rescue of cell death induced by DNMDP (rank in screen)” value with HeLa cells [4] is reported as “three most potent compounds”.
Take `CC(C)C(=O)c1c(C(C)C)nn2ccccc12` [idubulast]: the “rescue of DNMDP cytotoxicity / competition (in words)” value in the series on HeLa cells [2] is “not effective competitors”.
As for `Cc1[nH]c(=O)c(C#N)cc1-c1ccncc1` [milrinone, 2-methyl-6-oxo-1,6-dihydro-3,4′-bipyridine-5-carbonitrile], the “rescue of cell death induced by DNMDP (rank in screen)” value in the series with HeLa cells [4] is recorded as “three most potent compounds”. The “rescue of DNMDP cytotoxicity / competition (in words)” value with HeLa cells [2] is given as “able to rescue DNMDP cytotoxicity in a dose-dependent manner”.
For the molecule `CCCc1nn(C)c2c(=O)[nH]c(-c3cc(S(=O)(=O)N4CCN(C)CC4)ccc3OCC)nc12` [sildenafil, 1-[4-ethoxy-3-(6,7-dihydro-1-methyl-7-oxo-3-propyl-1H-pyrazolo[4,3-d]pyrimidin-5-yl)phenylsulfonyl]-4-methylpiperazine], in the series with HeLa cells [2], the “rescue of DNMDP cytotoxicity / competition (in words)” value is recorded as “not effective competitors”.
